The values that follow come from patent publication US7786136B2, “Indazole-carboxamide compounds” (Theravance, Inc., priority 2004, dated 2010).

The data set is described as follows: Pharmacokinetic study in the rat. It is filed as in vivo. On the procedure: Pharmacokinetic Study in the Rat
Aqueous solution formulations of test compounds were prepared in 0.1% lactic acid at a pH of between about 5 and about 6. Male Sprague-Dawley rats (CD strain, Charles River Laboratories, Wilmington, Mass.) were dosed with test compounds via intravenous administration (IV) at a dose of 2.5 mg/kg or by oral gavage (PO) at a dose of 5 mg/kg. The dosing volume was 1 mL/kg for IV and 2 mL/kg for PO administration. Serial blood samples were collected from animals pre-dose, and at 2 (IV only), 5, 15, and 30 min, and at 1, 2, 4, 8, and 24 hours post-dose. Concentrations of test compounds in blood plasma were determined by liquid chromatography-mass spectrometry analysis (LC-MS/MS) (MDS SCIEX, API 4000, Applied Biosystems, Foster City, Calif.) with a lower limit of quantitation of 1 ng/mL.
Standard pharmacokinetic parameters were assessed by non-compartmental analysis (Model 201 for IV and Model 200 for PO) using WinNonlin (Version 4.0.1, Pharsight, Mountain View, Calif.). The maximum in the curve of test compound concentration in blood plasma vs. time is denoted Cmax. The area under the concentration vs. time curve from the time of dosing to the last measurable concentration (AUC(0-t)) was calculated by the linear trapezoidal rule. Oral bioavailability (F(%)), i.e. the dose-normalized ratio of AUC(0-t) for PO administration to AUC(0-t) for IV administration, was calculated as: F(%)=AUCPO/AUCIV×DoseIV/DosePO×100%

Where [1] appears, read: male Sprague-Dawley rats, blood plasma, IV 2.5 mg/kg or PO 5 mg/kg.

Each structure is given as a SMILES string.

The term AUC(0-t) denotes the area under the concentration-time curve up to a stated or last time point. A low value points to less exposure. Usually Cmax stands for the highest concentration seen after dosing. As to `CC(C)n1nc(C(=O)N[C@H]2C[C@H]3CC[C@@H](C2)N3CC(O)CN2CCN(C(=O)C3CCCO3)CC2)c2ccccc21` (stereo partly drawn) [Example 2, 1-isopropyl-1H-indazole-3-carboxylic acid((1S,3R,5R)-8-{2-hydroxy-3-[4-(tetrahydrofuran-2-carbonyl)piperazin-1-yl]propyl}-8-aza-bicyclo[3.2.1]oct-3-yl)amide], under setting [1], the “AUC(0-t)” value was 427 ng·h/mL and the Cmax amounted to 55 ng/mL. In addition, under “rat, dose-normalized AUC(0-t) PO 5 mg/kg vs IV 2.5 mg/kg”, the “oral bioavailability (F(%))” value is given as “about 30%”.
